Data as given in BindingDB's records for patent US20250326769 (Nuvalent, 2025).

What was measured:
[1] = target: ALK tyrosine kinase receptor [I1171N,D1203N] (UniProt Q9UM73, D1203N/I1171N); experiment: Biochemical Kinase Assay
Protocol: (§1) First, 250 nL of compound dissolved in DMSO (100-fold of the desired concentration) was dispensed into a 384-well plate. A 12.5 μL substrate solution containing ATP (2 mM) and fluorogenic phosphorylation substrate AQT0101 ([…] for ALK and ROS, AssayQuant) or AQT0104 (26 μM for TRKB, AssayQuant) in buffer (50 mM HEPES pH 7.5, […], 0.5 mM EGTA, 10 mM MgCl2) was added and mixed thoroughly. Then, a 12.5 μL kinase solution containing ALK (1.5 nM, Carna, 08-518), ALK I1171N/D1203N (4 nM, SignalChem, custom-made), ROS1 (0.6 nM, Carma, 08-163), ROS1-G2032R (0.5 nM, SignalChem, R14-121BG), or TRKB-wt (1.5 nM, SignalChem, N17-11G) kinase domains in buffer ([…] pH 7.5, 0.01% Brij-[…], 0.4 mg/mL BSA, 0.5 mM EGTA, and 10 mM MgCl2) was added and mixed thoroughly. The plate was sealed and read by SpectraMax Paradigm at λ=485 nm every 2 minutes for 120 minutes at 30° C. Initial rates of reaction (v) were calculated from the change in fluorescence intensity over time during the initial, linear portion of the reaction.

[2] = target: BDNF/NT-3 growth factors receptor (Homo sapiens, UniProt Q16620); experiment: Biochemical Kinase Assay
Protocol: as §1

Chain of ALK tyrosine kinase receptor [I1171N,D1203N] (Q9UM73 19-1620 I1171N/D1203N limits assumed): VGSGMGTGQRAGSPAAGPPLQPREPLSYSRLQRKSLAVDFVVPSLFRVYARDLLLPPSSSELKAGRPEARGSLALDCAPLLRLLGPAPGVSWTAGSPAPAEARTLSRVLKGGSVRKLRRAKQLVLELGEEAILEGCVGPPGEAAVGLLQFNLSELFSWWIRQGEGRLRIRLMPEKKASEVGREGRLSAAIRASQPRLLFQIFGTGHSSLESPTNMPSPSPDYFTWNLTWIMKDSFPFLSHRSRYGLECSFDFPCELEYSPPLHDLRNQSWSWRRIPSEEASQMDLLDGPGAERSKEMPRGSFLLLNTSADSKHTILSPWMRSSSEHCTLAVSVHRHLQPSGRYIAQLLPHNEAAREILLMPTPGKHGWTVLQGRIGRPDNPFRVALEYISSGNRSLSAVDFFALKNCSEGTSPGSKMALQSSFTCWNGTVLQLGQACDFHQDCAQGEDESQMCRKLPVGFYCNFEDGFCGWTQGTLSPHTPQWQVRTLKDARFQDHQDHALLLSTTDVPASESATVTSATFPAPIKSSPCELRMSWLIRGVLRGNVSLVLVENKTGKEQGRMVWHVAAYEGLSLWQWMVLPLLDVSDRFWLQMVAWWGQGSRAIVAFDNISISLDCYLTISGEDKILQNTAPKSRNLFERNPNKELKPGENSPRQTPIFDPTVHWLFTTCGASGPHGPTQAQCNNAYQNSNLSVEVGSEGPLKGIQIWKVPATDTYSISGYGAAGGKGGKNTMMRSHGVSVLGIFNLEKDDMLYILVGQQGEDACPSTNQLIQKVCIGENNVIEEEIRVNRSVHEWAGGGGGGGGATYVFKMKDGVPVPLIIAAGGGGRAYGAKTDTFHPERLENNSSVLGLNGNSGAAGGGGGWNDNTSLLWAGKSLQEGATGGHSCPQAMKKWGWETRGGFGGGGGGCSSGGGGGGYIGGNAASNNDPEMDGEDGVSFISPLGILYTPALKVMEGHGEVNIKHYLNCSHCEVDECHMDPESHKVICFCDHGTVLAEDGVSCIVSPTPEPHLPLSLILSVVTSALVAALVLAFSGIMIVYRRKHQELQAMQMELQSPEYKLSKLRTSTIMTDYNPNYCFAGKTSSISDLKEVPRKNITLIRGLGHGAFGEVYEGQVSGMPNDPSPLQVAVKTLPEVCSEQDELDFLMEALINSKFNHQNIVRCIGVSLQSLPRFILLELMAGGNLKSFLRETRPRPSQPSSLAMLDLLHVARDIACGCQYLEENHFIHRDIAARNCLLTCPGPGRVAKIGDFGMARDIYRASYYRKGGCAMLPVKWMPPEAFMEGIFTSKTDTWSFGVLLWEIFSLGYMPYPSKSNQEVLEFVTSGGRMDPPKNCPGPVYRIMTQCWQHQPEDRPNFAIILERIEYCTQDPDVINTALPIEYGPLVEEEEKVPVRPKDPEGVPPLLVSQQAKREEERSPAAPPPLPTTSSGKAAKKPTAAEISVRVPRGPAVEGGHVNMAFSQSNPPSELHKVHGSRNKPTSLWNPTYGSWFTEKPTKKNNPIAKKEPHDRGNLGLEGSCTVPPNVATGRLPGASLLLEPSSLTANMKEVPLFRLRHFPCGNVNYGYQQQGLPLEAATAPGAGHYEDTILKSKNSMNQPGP
Chain of BDNF/NT-3 growth factors receptor (Q16620 whole entry): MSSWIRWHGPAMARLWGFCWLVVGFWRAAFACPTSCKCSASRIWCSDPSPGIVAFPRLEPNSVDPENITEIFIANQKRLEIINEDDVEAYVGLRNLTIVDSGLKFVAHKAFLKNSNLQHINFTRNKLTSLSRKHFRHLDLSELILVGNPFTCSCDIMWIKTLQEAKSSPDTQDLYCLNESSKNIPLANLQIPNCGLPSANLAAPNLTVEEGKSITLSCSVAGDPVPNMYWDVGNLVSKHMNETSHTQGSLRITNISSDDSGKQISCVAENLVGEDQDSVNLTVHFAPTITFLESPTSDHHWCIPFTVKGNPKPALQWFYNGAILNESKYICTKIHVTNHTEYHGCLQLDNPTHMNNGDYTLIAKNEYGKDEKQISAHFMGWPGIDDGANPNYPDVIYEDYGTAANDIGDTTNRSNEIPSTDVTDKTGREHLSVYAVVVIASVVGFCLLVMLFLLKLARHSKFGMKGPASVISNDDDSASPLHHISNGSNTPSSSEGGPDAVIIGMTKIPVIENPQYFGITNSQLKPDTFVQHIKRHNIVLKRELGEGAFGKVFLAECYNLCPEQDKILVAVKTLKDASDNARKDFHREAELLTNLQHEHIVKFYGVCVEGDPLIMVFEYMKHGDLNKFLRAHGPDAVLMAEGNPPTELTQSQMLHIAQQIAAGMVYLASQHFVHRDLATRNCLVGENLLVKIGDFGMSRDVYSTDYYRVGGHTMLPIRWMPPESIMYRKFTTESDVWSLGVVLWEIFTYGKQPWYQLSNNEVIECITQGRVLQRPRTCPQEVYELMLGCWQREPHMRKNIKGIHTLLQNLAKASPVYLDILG

Row | SMILES | Ki [1] [nM] | Ki [2] [nM]
1 | C[C@H]1Oc2cc(cnc2N)-c2c(c(C(N)=O)nn2CC2CC2)Cc2cccnc2-c2ccc(F)cc21 [US20250326769, Example 6] | < 50 | 
2 | CC(C)N(C)C(=O)c1nn(CC2CC2)c2c1Cc1cn(C)nc1-c1ccc(F)cc1[C@@H](C)Oc1cc-2cnc1N [US20250326769, Example 37] | < 50 | > 500

Next, values leading:

Row | Ki [1] [nM] | Ki [2] [nM] | SMILES
3 | < 50 | < 50 | CCn1ncc2c1-c1cnc(N)c(c1)O[C@H](C)c1cc(F)ccc1-c1ncccc1O2 [US20250326769, Example 14]
4 | < 50 |  | CCN(C)C(=O)c1nn(CC2CC2)c2c1Cc1cn(C)nc1-c1ccc(F)cc1[C@@H](C)Oc1cc-2cnc1N [US20250326769, Example 38]
5 | < 50 |  | Cc1cc2n(n1)-c1c(F)cc(F)cc1[C@@H](C)Oc1cc(cnc1N)-c1c(c(C(=O)N(C)C)nn1CC1CC1)C2 [US20250326769, Example 44]
